According to US9546144B2, “Bifunctional compounds” (University of Pittsburgh—of the Commonwealth System of …, priority 2011, dated 2017):

Legend:
[1] = storage in 25% w/w solutions of 3 and NMP; format: physicochemical; details: 25% w/w 3 and NMP at −20° C.
Protocol: Because sulfoxide 3 is a solid, it would have to be mixed with an appropriate water-soluble cosolvent to act as a compound storage additive. NMP was chosen for exploring this potential application due to its thermal stability and low toxicity. […] The compound test set (FIG. 2) was stored in 25% w/w solutions of 3 and NMP for 6 weeks at −20° C.

[2] = log P by shake-flask method; format: physicochemical; details: n-octanol/water, rt (23.5° C.), average of 3 trials, read-out: log P (octanol-water partition coefficient)
Protocol: Determination of log P Value of 3.
The log P (octanol-water partition coefficient) was determined using the shake-flask method. Three determinations were made. A representative procedure is as follows: a 250-mL separatory funnel was charged with a solution of 3 (50.0 mg) in water (50.0 mL) and n-octanol (50.0 mL). The funnel was capped and inverted 100 times. The funnel and contents were left to stand at rt (23.5° C.) for 40 h. Aliquots of both phases were analyzed by UV/VIS (214 nm for the aqueous layer and 218 nm for the octanol layer), and the concentration in each layer was determined using previously generated calibration curves. In the case of the aqueous layer, a 10-fold dilution was necessary prior to measurement. All measurements were run in triplicate. The log P was determined as log ([3]octanol/[3]aqueous), and the average log P value from the 3 trials was −0.87.

[3] = system: fibrosis associated gene transcripts in lung; assay: RT-PCR of gene transcripts in lungs of 20 Gy thoracic irradiated mice; format: in vivo, mouse; details: 100 μM in drinking water continuously from day 80 after 20 Gy
Protocol: FIGS. 20A-20D. MMS350 decreases levels of irradiation induced endothelial and alveolar cell specific RNA levels. Endothelial and alveolar cells were isolated from the lungs of irradiated control or MMS350 treated mice at days 0, 29, 150, and 200 after 20 Gy thoracic irradiation. […] RNA was isolated and RT-PCR was performed for gene expression for: FIG. 20A oxidative stress induced promoters; FIG. 20B endothelial and alveolar cell markers; FIG. 20C fibrosis associated genes; and FIG. 20D endothelial cell markers. […]
FIGS. 21A-21C. […] Expression of BD1, BD2, BD3, and BRDT was determined.
Measurement of Levels of Gene Transcripts for Irradiation Inducible Promoters, Growth Factors, Inflammatory Cytokines, Adhesion Molecules microRNA, and Bromodomain Epigenetic Reader Proteins by RT-PCR
RNA was extracted from mouse lung or purified cell populations using the TRIzol reagent (Invitrogen, Carlsbad, Calif.) following the manufacturer's instructions, quantified using a spectrophotometer, and stored at −80° C. […]
Data for each gene were normalized by calculating the differences (ΔCt) from the Ct-GUSB and Ct-Target genes. Subsequently, the relative increase or decrease in expression was calculated by comparing the reference gene with the target gene (ΔΔCt) and using the formula for relative expression (=2^ΔΔCt). […]

SMILES: CC1(C[S+]([O-])CC2(C)COC2)COC1 [compound 3, 3,3′-Sulfinylbis(methylene)bis(3-methyloxetane)]
- behaviour of 3 in the storage solution [1]: partly precipitated from the solution
- logP at 40 h [2]: -0.87
- fibrosis phase mRNA expression [3]: decreased expression of fibrosis phase mRNA expression
